Measurements from patent US20110190249A1, “THERAPEUTIC METHODS AND USES OF SAPOGENINS AND THEIR DERIVATIVES” (PHYTOPHARM PLC, priority 2002, published 2011).
Marks after values point to notes of the source that are not given here.

Key:
[1] = tested on: rat primary cortical neurones; assay: Prevention of glutamate-induced neurodegeneration (LDH release), pre-treatment; type: cell-based; conditions: 30 nM, given 24 h before glutamate; LDH 24 h after glutamate; control = 100
Description: The objective of this study was to examine the effects of sarsasapogenin, episarsasapogenin cathylate, episarsasapogenin, epismilagenin and smilagenin on the survival of rat primary cortical neurones exposed to glutamate, which is known to induce neuro degeneration.
Rat cortical neurones were cultured for 10 days; at day 10 the medium was changed to a serum-free defined medium. On day 12, 24 hours before glutamate exposure, cultures were washed and medium was replaced with fresh medium containing positive control (β-oestradiol), test compounds (sarsasapogenin, episarsasapogenin cathylate, episarsasapogenin, epismilagenin and smilagenin) or vehicle control (DMSO, 0.25%) or diosgenin as negative control.
On day 13, cultures were exposed to glutamate. After the incubation period, the cultures were washed with and placed in fresh medium, supplemented with relevant compounds or vehicle to evaluate their protective effects, 24 h after glutamate exposure.
(§1) Neuronal cell survival was evaluated by measuring lactate dehydrogenase (LDH) activity released in the media 24 h after test compound treatment or glutamate+test compound exposure, using the CytoTox 96 non-radioactive kit and quantitated by measuring wavelength absorbance at 450 nm.

aged Sprague-Dawley rats = assay: Y-maze learning and memory test in aged rats; type: in vivo, rat; conditions: 18 mg kg−1 day−1 oral in food, 3 months
Description: (§2) Aged Sprague-Dawley rats aged were divided into different groups, one control and groups treated for 2-3 months with either sarsasapogenin, episarsasapogenin cathylate or smilagenin (18 mg kg^−1 day^−1, n=10). A control group (n=14) of untreated young rats was also included in the study. The daily dose of drug was mixed in a minimum amount of food and was administered every morning separately to each rat.
A Y-maze apparatus was used for the learning and memory test. On the floor of each arm of the Y-maze is an array of copper rods to which electric current is applied whenever needed, with adjustable voltage. Each arm is 45 cm long and has a 15 W lamp at the end, which is turned on when needed. After 3 months drug administration, each rat was trained for 7 consecutive days, as follows. For each training session, the rat was put into one arm of the Y-maze, after two minutes rest, an electrical current was applied to the copper rods and the lamp of the clockwise arm was illuminated to indicate the non-stimulation area. If the rat went into that arm, one correct response was recorded, otherwise, one wrong response was recorded: This stimulation-response test was repeated 20 times each day, with a pause of 5 sec between each two consecutive tests. The number of correct responses following the twenty tests on the seventh day was used to express learning ability, (the higher the number the better the learning ability). The rats were then left resting for 30 days and the procedure was repeated once more. The number of correct responses of the 20 tests after the 30 day rest period was used to represent the memory ability

[2] = tested on: Sprague Dawley rats injected with amyloid β1-40 and ibotenic acid; assay: Step-through test in amyloid β + ibotenic acid rat model; type: in vivo; conditions: 18 mg/kg/day gastric tube, two months; errors in 5 min; model 4.00 ± 2.40, control 0.60 ± 0.70
Description: (§3) An in vivo model of Alzheimer's disease was used to model neurodegeneration. In this model the neurotoxic agents (amyloid β and ibotenic acid) are injected into the brain of the rat. This leads to neuronal loss, receptor loss and cognitive impairment. […] In addition the co-injection of amyloid β with a small amount of ibotenic acid into the rat hippocampus synergistically produces neuronal loss with infiltration of glial cells not only adjacent but also far from the injected site (Morimoto et al., 1998: Neuroscience, 84, 479-487).
(§4) Our studies used the method of Morimoto (Morimoto et al., 1998: Neuroscience, 84, 479-487) with some modifications (unilateral instead of bilateral injection). Three months old, Sprague Dawley rats, were randomly divided into different groups. Injection of amyloid β1-40 and ibotenic acid (both from Sigma) was accomplished by means of a stereotaxic instrument (Stoelting Co.) and the coordinates were AP=−0.5 mm […], L=−2.8 mm […], H=−7.0 mm (ventral to dura). The dose for each rat was amyloid β1-40 (4 μg) and ibotenic acid (1 μg) in 1 μl of saline. The injection was completed in 20 min, and the needle was withdrawn 10 min later. Then the skin was sutured.
(§5) The 8 groups were: • Operated control injected with normal saline (control) • Model (control injected with amyloid β+ibotenic acid) • Model+Episarsasapogenin cathylate (18 mg/kg/day)* • Model+Sarsasapogenin cathylate (18 mg/kg/day)* • Model+Episarsasapogenin ethylsuccinate (18 mg/kg/day) (comparison) • Model+Episarsasapogenin (18 mg/kg/day)* • Model+Epismilagenin (18 mg/kg/day)* • Model+Diosgenin (i.e. negative control, 18 mg/kg/day)
(§6) Episarsasapogenin cathylate, sarsasapogenin cathylate, episarsasapogenin ethylsuccinate (comparison compound), episarsasapogenin, epismilagenin and diosgenin (all at a dosage of 18 mg/kg/day) were administered to animals as stable suspensions in CMC—Na (0.5%) once daily through a gastric tube. The control and the model group were given the same volume of CMC—Na (0.5%) once daily. The drugs and vehicles were given for a period of two months, starting 20 days before operation.
Step-Through Test: learning and memory. The effect of test compounds on learning and memory was assessed using the step-through test. A 60×15×15 cm box, divided into 2 equally sized rooms, one dark room with copper rod base, which was electrically charged (40 V ac) when in use, while the other was a light room but not electrically charged. Between the two rooms there is an opening (hole) for the rat to go through. The experiment is carried out for each rat on two consecutive days. The first day is for training; when the rat is adapted in the box for the first 3 min, then put in the light room, with its back toward the hole, and the copper rods of the dark room are charged for 5 min. The second day is for testing, when the number of crosses in 5 min are recorded. Improvements in memory are signalled by a reduction in the number of crosses.

[3] = tested on: muscarinic acetylcholine receptor; assay: Brain muscarinic acetylcholine receptor density in aged rats (dual-site competitive ligand binding); type: in vivo, rat; conditions: 18 mg kg−1 day−1 oral, 2-3 months
Description: as §2
Muscarinic acetylcholine receptor density in the brain was measured. Tissue was prepared as follows: brains were removed quickly after decapitation, frozen in dry ice, and transferred to a freezer. The brains were homogenised and the pellet was finally suspended in buffer.
The dual-site competitive ligand binding assay was used to measure muscarinic acetylcholine receptor density.

[4] = tested on: muscarinic acetylcholine receptor; assay: Brain M receptor density (3H-QNB) in amyloid β + ibotenic acid rat model; type: in vivo; conditions: 18 mg/kg/day gastric tube, two months; model 713 ± 48, control 859 ± 101
Description: as §3, §4, §5, §6
Muscarinic acetylcholine receptor density was assessed. The brain samples were homogenised, centrifuged, and the pellet of centrifugation at 27000×g was re-homogenised and used for measurement. The concentration of ^3H-QNB was chosen at the saturation range. After incubation and separation, the bound portion was measured by liquid scintillation counter.

[5] = tested on: rat mesencephalic dopaminergic neurones; assay: Pre-treatment of dopaminergic neurones before MPP+ exposure (neuronal survival); type: cell-based; conditions: pre-treatment 30 nM; MPP+ 2 μM; MPP+ alone 55 ± 3
Text: Smilagenin and sarsasapogenin prevent the neurodegeneration caused by exposure to the neurotoxin, 1-methyl-4-phenylpyridinium (MPP^+) in rat mesencephalic dopaminergic neurones; a model of Parkinson's disease in vitro.
Glial cell line-derived neurotrophic factor (GDNF) and brain-derived neurotrophic factor (BDNF), molecules that are involved in neuronal growth, were used as positive controls.

[6] = tested on: rat primary spinal motor neurones; assay: Glutamate-induced neurodegeneration in spinal motor neurones (LDH); type: cell-based; conditions: control 100 ± 1
Description: The objective of this study was to examine the effects of sarsasapogenin and smilagenin on the survival of rat primary spinal motor neurones exposed to glutamate, which is known to induce neurodegeneration in this model of motor neurodegeneration.
Rat motor neurones were prepared according to the method described by (Martinou et al, Neuron, 8, 737-744, 1992). On day 10, medium was removed and the cultures were exposed to glutamate (4 microM) for 10 min at 37° C. in defined medium. After the glutamate exposure, cultures were washed with Dulbecco modified Eagle medium at 37° C. then placed in fresh culture medium containing test compounds. After 48 h, the extent of spinal motor neurone degeneration was determined by measuring the amount of lactate dehydrogenase (LDH) released into the culture medium as above.

dopamine (D) 2 receptor = assay: Dopamine D2 receptor density in aged rats; type: in vivo, rat; conditions: aged rats treated 3 months; aged untreated 153.8±40.5, young 200.6±50.9
Description: as §2
(§7) By contrast, smilagenin and sarsasapogenin treatment in aged rats for 3 months restored the D1 and D2 receptor density (smilagenin 177±10.9; 217±45.7 fmol/mg protein; sarsasapogenin 172.0±44.0; 206.4±60.5 respectively).

BDNF = BDNF levels in aged rats; type: in vivo, rat; conditions: aged rats treated 3 months; aged untreated 1.205±0.219, young 1.647±0.277
Description: as §2

dopamine (D) 1 receptor = assay: Dopamine D1 receptor density in aged rats; type: in vivo, rat; conditions: aged rats treated 3 months; aged untreated 129.2±36.8, young 157.5±33.2
Description: as §2, §7

[7] = tested on: rat mesencephalic dopaminergic neurones; assay: Treatment of dopaminergic neurones after MPP+ exposure (survival, neurites); type: cell-based; conditions: MPP+ 2 μM
Text: Smilagenin and sarsasapogenin also reverse the neurodegeneration caused by exposure to the neurotoxin 1-methyl-4-phenylpyridinium (MPP^+) in rat mesencephalic dopaminergic neurones; a model of Parkinson's disease in vitro.
Glial cell line-derived neurotrophic factor (GDNF) and brain-derived neurotrophic factor (BDNF), molecules that are involved in neuronal growth, and 17β-oestradiol were used as positive controls. Treatment with smilagenin and sarsasapogenin produced a significant increase in the neuronal survival compared to neurones exposed to MPP^+ alone (Table 8).
Exposure to MPP^+ caused not only a significant decrease in dopaminergic number but also in the percentage of neurites.

[8] = tested on: rat primary cortical neurones; assay: Reversal of glutamate-induced neurodegeneration (LDH), treatment after glutamate exposure; type: cell-based; conditions: LDH after 24 h, control = 100
Description: as §1
As above mentioned, exposure of rat primary cortical cultures to glutamate (100 μM; 10 min) caused an increase in lactate dehydrogenase (LDH) activity measured after 24 h, indicating a significant neurodegeneration.

[9] = tested on: progressive motor neuropathy (pmn) mice; assay: Survival and behaviour of pmn mice (Charcot-Marie-Tooth model); type: in vivo; conditions: pmn mouse
Text: Amyotrophic lateral sclerosis (ALS) is a progressive fatal neurodegenerative disorder that causes motor neurone degeneration, […], paralysis and death. The cause of this disease is heterogeneous: mutations in the Cu/Zn superoxide dismutase (SOD-1) gene is responsible for some forms of human ALS. Animal models of this disease include the SOD-1 transgenic mice over-expressing SOD-1 gene and the progressive motor neuropathy (pmn, a model of Charcot-Marie-Tooth) mice.

[10] = tested on: rat primary cortical neurones; assay: Neurite outgrowth in rat primary cortical neurones; type: cell-based; conditions: for Number of neurones displaying neurites, Mean ± s.e.m (%): control 47 ± 2; for Neurite length measured using optical micrometry, Mean ± s.e.m (%): control 100 ± 4
Text: Neurodegenerative disorders are characterised by a progressive loss of neurones and degradation of neuronal processes (neurites). Agents that induce neurite outgrowth may promote the formation of new connections between neurones and ameliorate the symptoms of neurodegenerative conditions (Katzman et al, Faseb J., 5, 278-286, 1991).

CCOC(=O)O[C@@H]1CC[C@@]2(C)[C@H](CC[C@@H]3[C@@H]2CC[C@]2(C)[C@@H]4[C@H](C[C@@H]32)O[C@]2(CC[C@H](C)CO2)[C@H]4C)C1 [episarsasapogenin cathylate]
Prevention of glutamate-induced neurodegeneration, Mean ± s.e.m (%) [1]: 74 ± 3% | Learning and memory ability (Y-maze) (aged Sprague-Dawley rats): restored the learning and memory ability | Learning and memory Step through test Error No [2]: 1.36 ± 0.92* | Muscarinic acetylcholine receptor density in brain [3]: significantly restored | M receptor density [4]: 877 ± 89* fmol/mg/protein

C[C@H]1CC[C@@]2(OC1)O[C@H]1C[C@H]3[C@@H]4CC[C@@H]5C[C@@H](O)CC[C@]5(C)[C@H]4CC[C@]3(C)[C@H]1[C@@H]2C [sarsasapogenin]
Dopaminergic neurones after MPP+ exposure (survival), Mean ± s.e.m (%) [5]: 89 ± 3% | Glutamate-induced neurodegeneration in spinal motor neurones, Mean ± s.e.m (%) ([6]; 0.03 nM for 48 h after glutamate 4 microM 10 min): 123 ± 2% | Glutamate-induced neurodegeneration in spinal motor neurones, Mean ± s.e.m (%) ([6]; 3 nM for 48 h after glutamate 4 microM 10 min): 137 ± 1% | Glutamate-induced neurodegeneration in spinal motor neurones, Mean ± s.e.m (%) ([6]; 300 nM for 48 h after glutamate 4 microM 10 min): 136 ± 6% | D2 receptor density (dopamine (D) 2 receptor): 206.4±60.5 fmol/mg protein | Prevention of glutamate-induced neurodegeneration, Mean ± s.e.m (%) [1]: 79 ± 3% | BDNF levels (BDNF): 1.410±0.232 ng/g tissue | D1 receptor density (dopamine (D) 1 receptor): 172.0±44.0 fmol/mg protein | Learning and memory ability (Y-maze) (aged Sprague-Dawley rats): restored the learning and memory ability | Percentage of neurites in dopaminergic neurones after MPP+ exposure, Mean ± s.e.m (%) ([7]; 0.03 nM, control 41 ± 4, MPP+ alone 27 ± 5): 43 ± 4% | Dopaminergic neurones after MPP+ exposure (survival), Mean ± s.e.m (%) ([7]; treatment 0.03 nM, MPP+ alone 76 ± 4): 112 ± 6% | Muscarinic acetylcholine receptor density in brain [3]: significantly restored | Cortical neurones previously exposed to glutamate, Mean ± s.e.m (%) ([8]; 3 nM after glutamate 100 μM 10 min): 101 ± 3% | Cortical neurones previously exposed to glutamate, Mean ± s.e.m (%) ([8]; 30 nM after glutamate 100 μM 10 min): 112 ± 1% | Behavioural deficits ([9]; oral administration): improve the behavioural deficits | Lifespan (survival) ([9]; oral administration (FIG. 6)): increase the lifespan | Number of neurones displaying neurites, Mean ± s.e.m (%) ([10]; 0.3 pM): 55 ± 2% | Neurite length measured using optical micrometry, Mean ± s.e.m (%) ([10]; 0.3 pM): 177 ± 5% | Number of neurones displaying neurites, Mean ± s.e.m (%) ([10]; 3 pM): 61 ± 1% | Neurite length measured using optical micrometry, Mean ± s.e.m (%) ([10]; 3 pM): 197 ± 5% | Number of neurones displaying neurites, Mean ± s.e.m (%) ([10]; 30 pM): 62 ± 2% | Neurite length measured using optical micrometry, Mean ± s.e.m (%) ([10]; 30 pM): 211 ± 6%
